Results published in US20100016366A1, “Novel Compounds Active as Muscarinic Receptor Antagonists” (priority 2008, published 2010).

Key:
[1] = biological target: T1, human muscarinic M3 receptor (Homo sapiens, UniProt P20309); assay: Cell based potency assessment, hM3 β-lactamase assay (CHO cell β-lactamase); conditions: CHO cells recombinantly expressing human M3, NFAT-β-lactamase reporter; inhibition of 80 nM carbamyl choline signal, 4 h; IC50 converted by Cheng-Prusoff
T1 construct: expressed in transfected cells; host or cells: CHO (CHO-K1) cells
Procedure: Cell BASED POTENCY ASSESSMENT at the Human Recombinant M3 Muscarinic Receptor
M3 potency was determined in CHO-K1 cells transfected with the NFAT-Betalactamase gene. CHO (Chinese Hamster Ovary) cells recombinantly expressing the human muscarinic M3 receptor were transfected with the NFAT_β-Lac_Zeo plasmid. Cells were grown in DMEM with Glutamax-1, supplemented with 25 mM HEPES (Life Technologies 32430-027), containing 10% FCS (Foetal Calf Serum; Sigma F-7524), […] Sodium pyruvate (Sigma S-8636), NEAA (non-Essential Amino Acids; Invitrogen 11140-035) and 200 μg/ml Zeocin (Invitrogen R250-01).
hM3 β-Lactamase Assay Protocol
Cells were harvested for assay when they reached 80-90% confluency using enzyme free cell Dissociation Solution (Life technologies 13151-014) incubated with the cells for 5 min at 37° C. in an atmosphere containing 5% CO2. Detached cells were collected in warmed growth media and centrifuged at 2000 rpm for 10 min, washed in PBS (Phosphate Buffered Saline; Life Technologies 14190-094) and centrifuged again as just described. The cells were re-suspended at 2×10^5 cells/ml in growth medium (composition as described above). 20 μl of this cell suspension was added to each well of a 384 well black clear bottomed plate (Greiner Bio One 781091-PFI). The assay buffer used was PBS supplemented with 0.05% Pluronic F-127 (Sigma 9003-11-6) and 2.5% DMSO. Muscarinic M3 receptor signalling was stimulated using 80 nM carbamyl choline (Aldrich N240-9) incubated with the cells for 4 h at 37° C./5% CO2 and monitored at the end of the incubation period using a Tecan SpectraFluor+plate reader (λ−excitation 405 nm, emission 450 nm and 503 nm). M3 receptor antagonists under test were added to the assay at the beginning of the 4 h incubation period and compound activity measured as the concentration dependent inhibition of the carbamyl choline induced signal. Inhibition curves were plotted and IC50 values generated using a 4-parameter sigmoid fit and converted to Ki values using the Cheng-Prusoff correction and the KD value for carbamyl choline in the assay.

[2] = biological target: T1, human muscarinic M3 receptor; assay: hM3 competition binding assay (3H-NMS, CHO cell membranes); conditions: CHO cell membranes expressing human M3; 3H-NMS at 5×KD, 24 hr at RT; IC50 corrected by Cheng-Prussoff
Procedure: Binding Affinity Assessment at the Human Recombinant M3 Muscarinic Receptor
Cell Pellets from CHO (Chinese Hamster Ovary) cells recombinantly expressing the human muscarinic M3 receptor were homogenised in 20 mM HEPES (pH7.4) and centrifuged at 48000×g for 20 min at 4° C. The pellet was re-suspended in buffer and the homogenisation and centrifugation steps repeated. The resulting pellet was re-suspended in 1 ml buffer per 1 ml original packed cell volume and the homogenisation step repeated. Protein estimation was carried out on the suspension and 1 ml aliquots of ˜1 mg/ml frozen at −80° C.
hM3 Competition Binding Assay Protocol
Membranes (5 µg/well) were incubated with ^3H-NMS (at a concentration 5×KD) plus/minus test compound for 24 hr at RT (room temperature) in a 1 ml polystyrene 96-well deep well block. The final assay volume was 200 µl, comprising of: 20 µl plus/minus test compound; 20 µl ^3H-NMS (Perkin Elmer NEN 636) and 160 µl membrane solution. Total Binding was defined with 0.1% DMSO; Non-Specific Binding was defined with 1 µM Atropine. Assay buffer was 20 mM Hepes (pH 7.4).
Once all assay components were added, plates were covered and incubated at room temperature for 24 hrs with shaking. The assay was terminated by rapidly filtering through GF/B Unifilter plates pre-soaked with 0.5% polyethylenimine, using a Packard filtermate harvester, the filter plate was then washed with 3×1 ml 4° C. assay buffer. The filter plates were dried at 45° C. for 1 hour. The bottoms of the filter plates were sealed and 50 µl/well of Microscint ‘0’ added, the top of the plates were sealed with a Topseal. Following 90 mins, the plates were read on an NXT Topcount (1 minute read time per well).
The resulting data was expressed as a percentage of the specific binding (Specific binding=Total binding−Non-Specific Binding). % specific binding versus test compound concentration was plotted to determine an IC50 from a sigmoid curve using an in-house data analysis programme. IC50 values corrected to Ki values by applying the Cheng-Prussoff equation: […]
where IC50 is the concentration of unlabelled drug which inhibits by 50% the specific radioligand binding. [L] is the free radioligand concentrations and KD and Ki are the equilibrium dissociation constants of the radioligand and unlabelled drug respectively.

T1 sequence (P20309 whole entry): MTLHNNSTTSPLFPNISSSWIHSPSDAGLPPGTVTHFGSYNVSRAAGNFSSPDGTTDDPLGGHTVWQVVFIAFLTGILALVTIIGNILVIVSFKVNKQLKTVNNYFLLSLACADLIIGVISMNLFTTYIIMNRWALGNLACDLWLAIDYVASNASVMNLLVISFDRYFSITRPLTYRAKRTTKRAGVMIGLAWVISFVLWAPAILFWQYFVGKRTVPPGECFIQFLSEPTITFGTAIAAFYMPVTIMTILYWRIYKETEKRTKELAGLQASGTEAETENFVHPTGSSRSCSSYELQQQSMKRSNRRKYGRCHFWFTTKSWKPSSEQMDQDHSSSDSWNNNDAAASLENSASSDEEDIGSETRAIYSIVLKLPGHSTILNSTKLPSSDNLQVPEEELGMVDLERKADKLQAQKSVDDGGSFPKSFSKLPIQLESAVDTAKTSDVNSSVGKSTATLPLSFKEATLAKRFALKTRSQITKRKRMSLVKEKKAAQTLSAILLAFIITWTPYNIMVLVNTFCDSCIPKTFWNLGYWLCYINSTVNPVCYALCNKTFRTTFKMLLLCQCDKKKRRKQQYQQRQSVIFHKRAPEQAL

Compound	Ki [1] [nM]	Ki [2] [nM]
O=C(Nc1ccccc1-c1ccccc1)OC1CCN(CCCCCCCCCNC(=O)c2ccc(O)c(Cl)c2)CC1 [Example 1, Biphenyl-2-yl-carbamic acid 1-[9-(3-chloro-4-hydroxy-benzoylamino)-nonyl]-piperidin-4-yl ester]	0.0697	1.6
O=C(Nc1ccccc1-c1ccccc1)OC1CCN(CCCCCCCCCNCc2cccc(O)c2F)CC1 [Example 2, Biphenyl-2-yl-carbamic acid 1-[9-(2-fluoro-3-hydroxy-benzylamino)-nonyl]-piperidin-4-yl ester]	0.84	1.05
O=C(Nc1ccccc1-c1ccccc1)OC1CCN(CCCCCCCCCNCc2cc(F)cc(Cl)c2O)CC1 [Example 3, Biphenyl-2-yl-carbamic acid 1-[9-(3-chloro-5-fluoro-2-hydroxy-benzylamino)-nonyl]-piperidin-4-yl ester]	0.779	2.33
O=C(Cc1ccc(O)c(Cl)c1)NCCCCCCCCCN1CCC(OC(=O)Nc2ccccc2-c2ccccc2)CC1 [Example 4, Biphenyl-2-yl-carbamic acid 1-{9-[2-(3-chloro-4-hydroxy-phenyl)-acetylamino]-nonyl}-piperidin-4-yl ester]	0.0415	1.19
O=C(Nc1ccccc1-c1ccccc1)OC1CCN(CCCCCCCCCNCc2cccc(O)c2Cl)CC1 [Example 5, Biphenyl-2-yl-carbamic acid 1-[9-(2-chloro-3-hydroxy-benzylamino)-nonyl]-piperidin-4-yl ester]	0.894	0.521
O=C(Nc1ccccc1-c1ccccc1)OC1CCN(CCCCCCCCCNC(=O)c2ccc(O)c(F)c2)CC1 [Example 6, Biphenyl-2-yl-carbamic acid 1-[9-(3-fluoro-4-hydroxy-benzoylamino)-nonyl]-piperidin-4-yl ester]	0.222	0.778
O=C(Nc1ccccc1-c1ccccc1)OC1CCN(CCCCCCCCCNC(=O)c2ccc(F)c(O)c2)CC1 [Example 7, Biphenyl-2-yl-carbamic acid 1-[9-(4-fluoro-3-hydroxy-benzoylamino)-nonyl]-piperidin-4-yl ester]	1.36	0.997
O=C(Nc1ccccc1-c1ccccc1)OC1CCN(CCCCCCCCCNC(=O)c2cccc(F)c2O)CC1 [Example 8, Biphenyl-2-yl-carbamic acid 1-[9-(3-fluoro-2-hydroxy-benzoylamino)-nonyl]-piperidin-4-yl ester]	2.68	4.81
O=C(Nc1ccccc1-c1ccccc1)OC1CCN(CCCCCCCCCNC(=O)c2cc(F)ccc2O)CC1 [Example 9, Biphenyl-2-yl-carbamic acid 1-[9-(5-fluoro-2-hydroxy-benzoylamino)-nonyl]-piperidin-4-yl ester]	8.81	
O=C(Cc1ccc(O)c(F)c1)NCCCCCCCCCN1CCC(OC(=O)Nc2ccccc2-c2ccccc2)CC1 [Example 10, Biphenyl-2-yl-carbamic acid 1-{9-[2-(3-fluoro-4-hydroxy-phenyl)-acetylamino]-nonyl}-piperidin-4-yl ester]	0.803	1.07
O=C(Nc1ccccc1-c1ccccc1)OC1CCN(CCCCCCCCCNC(=O)c2cccc(Cl)c2O)CC1 [Example 11, Biphenyl-2-yl-carbamic acid 1-[9-(3-chloro-2-hydroxy-benzoylamino)-nonyl]-piperidin-4-yl ester]	8.15	2.24
O=C(Nc1ccccc1-c1ccccc1)OC1CCN(CCCCCCCCCNC(=O)c2ccc(F)c(F)c2O)CC1 [Example 12, Biphenyl-2-yl-carbamic acid 1-[9-(3,4-difluoro-2-hydroxy-benzoylamino)-nonyl]-piperidin-4-yl ester]	7.32	
O=C(Nc1ccccc1-c1ccccc1)OC1CCN(CCCCCCCCCNC(=O)c2cc(Cl)cc(Cl)c2O)CC1 [Example 13, Biphenyl-2-yl-carbamic acid 1-[9-(3,5-dichloro-2-hydroxy-benzoylamino)-nonyl]-piperidin-4-yl ester]	18	
O=C(Nc1ccccc1-c1ccccc1)OC1CCN(CCCCCCCCCNC(=O)c2ccc(Cl)cc2O)CC1 [Example 14, Biphenyl-2-yl-carbamic acid 1-[9-(4-chloro-2-hydroxy-benzoylamino)-nonyl]-piperidin-4-yl ester]	13.9	
O=C(Nc1ccccc1-c1ccccc1)OC1CCN(CCCCCCCCCNC(=O)c2cc(Cl)ccc2O)CC1 [Example 24, Biphenyl-2-yl-carbamic acid 1-[9-(2-hydroxy-5-chloro-benzoylamino)-nonyl]-piperidin-4-yl ester]	17	

Continued, values first:

Ki [1] [nM]	Ki [2] [nM]	Compound
4.51		O=C(Nc1ccccc1-c1ccccc1)OC1CCN(CCCCCCCCCNC(=O)c2ccc(F)cc2O)CC1 [Example 26, Biphenyl-2-yl-carbamic acid 1-[9-(2-hydroxy-4-fluoro-benzoylamino)-nonyl]-piperidin-4-yl ester]
	1.12	CN(CCCCCCCCCN1CCC(OC(=O)Nc2ccccc2-c2ccccc2)CC1)C(=O)c1ccc(O)cc1F [Example 63, Biphenyl-2-yl-carbamic acid 1-{9-[(2-fluoro-4-hydroxy-benzoyl)-methyl-amino]-nonyl}-piperidin-4-yl ester]
	2	CN(CCCCCCCCCN1CCC(OC(=O)Nc2ccccc2-c2ccccc2)CC1)C(=O)c1ccc(O)c(F)c1F [Example 64, Biphenyl-2-yl-carbamic acid 1-{9-[(2,3-difluoro-4-hydroxy-benzoyl)-methyl-amino]-nonyl}-piperidin-4-yl ester]
	0.628	CN(CCCCCCCCCN1CCC(OC(=O)Nc2ccccc2-c2ccccc2)CC1)C(=O)c1ccc(O)cc1Cl [Example 65, Biphenyl-2-yl-carbamic acid 1-{9-[(2-chloro-4-hydroxy-benzoyl)-methyl-amino]-nonyl}-piperidin-4-yl ester]
	0.292	CN(CCCCCCCCCN1CCC(OC(=O)Nc2ccccc2-c2ccccc2)CC1)C(=O)Cc1cccc(O)c1 [Example 66, Biphenyl-2-yl-carbamic acid 1-(9-{[2-(3-hydroxy-phenyl)-acetyl]-methyl-amino}-nonyl)-piperidin-4-yl ester]
	0.828	CN(CCCCCCCCCN1CCC(OC(=O)Nc2ccccc2-c2ccccc2)CC1)C(=O)c1cc(F)ccc1O [Example 67, Biphenyl-2-yl-carbamic acid 1-{9-[(5-fluoro-2-hydroxy-benzoyl)-methyl-amino]-nonyl}-piperidin-4-yl ester]
	2.27	CN(CCCCCCCCCN1CCC(OC(=O)Nc2ccccc2-c2ccccc2)CC1)C(=O)c1cc(Cl)ccc1O [Example 68, Biphenyl-2-yl-carbamic acid 1-{9-[(5-chloro-2-hydroxy-benzoyl)-methyl-amino]-nonyl}-piperidin-4-yl ester]
	0.615	CN(CCCCCCCCCN1CCC(OC(=O)Nc2ccccc2-c2ccccc2)CC1)C(=O)c1ccc(O)c(F)c1 [Example 69, Biphenyl-2-yl-carbamic acid 1-{9-[(3-fluoro-4-hydroxy-benzoyl)-methyl-amino]-nonyl}-piperidin-4-yl ester]
